Measurements from PMC5846726, “Characterization of the Mel1c melatoninergic receptor in platypus (Ornithorhynchus anatinus)” (PLoS ONE, 2018).
Where two headings read alike, the source gives them in different places.

Legend:
[1] = molecular target: hMT1 (Homo sapiens, UniProt P48039); assay: 2-[125I]-iodomelatonin competition binding, human MT1; parameters: hMT1: unit not given here; details: for Ki: read-out: hMT1 (converted)
Protocol: (§1) This approach has been described very often by our laboratory and others. […] The results were expressed as Ki, taking into account the concentration of radioligand used in each experiment. […] The reaction was stopped by rapid filtration through GF/B Unifilters, followed by three successive washes with ice-cold buffer. Data were analyzed by using the program PRISM (GraphPad Software Inc., San Diego, CA). For saturation assays, the density of binding sites (Bmax) and the dissociation constant of the radioligand (KD) were calculated according to the Scatchard method. […] A similar protocol was used when the binding was performed on whole cells, as described by Legros et al.. As per Plos One policy, all the raw data–listings from radioactivity counter are attached as raw files (Supplementary Tables A to M in S1 Data).

[2] = molecular target: T1, Xenopus Mel1C (Xenopus laevis, UniProt P49219); assay: 2-[125I]-iodomelatonin competition binding, membranes from stably transfected CHO cells, Xenopus Mel1c; details: radioligand 2-[125I]-iodomelatonin
T1 construct: expressed in transfected cells
T1 sequence (P49219 1-420): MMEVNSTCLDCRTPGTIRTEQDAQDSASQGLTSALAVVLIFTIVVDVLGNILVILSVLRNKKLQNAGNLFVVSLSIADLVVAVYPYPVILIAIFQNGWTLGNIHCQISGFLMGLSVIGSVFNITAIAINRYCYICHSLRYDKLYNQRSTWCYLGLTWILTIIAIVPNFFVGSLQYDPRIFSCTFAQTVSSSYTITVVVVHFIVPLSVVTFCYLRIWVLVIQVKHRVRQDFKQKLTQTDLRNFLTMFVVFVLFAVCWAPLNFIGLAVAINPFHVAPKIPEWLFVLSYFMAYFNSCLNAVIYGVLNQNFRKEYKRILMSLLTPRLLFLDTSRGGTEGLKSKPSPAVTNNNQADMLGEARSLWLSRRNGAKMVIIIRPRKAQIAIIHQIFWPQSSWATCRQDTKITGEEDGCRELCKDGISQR
Protocol: (§2) CHO-Flp-In cells (Thermo Fisher Scientific, Waltham, USA) were cultivated in the presence of zeocin (0.1 mg/ml). The cells were cotransfected with either platypus (cloned sequence that will be submitted to GenBank) Mel1c/pcDNA5-FRT (platypus Mel1c) or X. laevis (NM 001087919.1) Mel1c/pcDNA5-FRT (clawed frog Mel1c) and Flp recombinase expression pOG44 plasmid using PEIpro (Invitrogen, Carlsbad, CA). CHO cells stably expressing platypus Mel1c or clawed frog Mel1c were selected using hygromycin (0.6 mg/ml). CHO-Flp-In-platypus Mel1c cells were grown in HAM F12 with 2 mM glutamine and supplemented with 10% fetal calf serum. Cells were selected using antibiotic pressure (hygromycin) for 72 h. […] After confirmation of the presence of the transgene, the cells were amplified up to 2 x 10^9 cells. This material was used to prepare the cell membranes used in further pharmacological experiments.
(§3) This standard procedure was described in a previous experiment with CHO cells expressing the sheep MT2 receptor [23]. […] The resulting pellet was suspended in 5 mM Tris/HCl (pH 7.4) containing 2 mM EDTA and homogenized using a Kinematica polytron. The homogenate was then centrifuged (20,000g, 30 min, 4°C) and the resulting pellet suspended in 75 mM Tris/HCl (pH 7.4) containing 2 mM EDTA and 12.5 mM MgCl2. The protein content was determined according to the method of Lowry et al. using the Bio-Rad kit (Bio-Rad SA, Ivry-sur-Seine, France). Aliquots of membrane preparations were stored in binding buffer (50 mM Tris/HCl, pH 7.4 containing 5 mM MgCl2 and 1 mM EDTA) at –80°C until use.
as §1

[3] = molecular target: T2, hMT2 (Homo sapiens, UniProt P49286); assay: 2-[125I]-iodomelatonin competition binding, human MT2; details: for Ki: read-out: hMT2 (converted)
T2 sequence (P49286 1-362): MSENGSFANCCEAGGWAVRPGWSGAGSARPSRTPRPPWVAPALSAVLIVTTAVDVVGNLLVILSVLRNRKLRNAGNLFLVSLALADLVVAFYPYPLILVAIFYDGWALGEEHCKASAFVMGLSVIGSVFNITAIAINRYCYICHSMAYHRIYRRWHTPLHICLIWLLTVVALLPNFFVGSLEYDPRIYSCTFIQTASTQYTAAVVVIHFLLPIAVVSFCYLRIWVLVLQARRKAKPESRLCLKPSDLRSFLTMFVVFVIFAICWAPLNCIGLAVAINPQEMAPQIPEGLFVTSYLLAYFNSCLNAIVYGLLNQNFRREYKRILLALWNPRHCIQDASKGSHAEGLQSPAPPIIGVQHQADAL
Protocol: as §1

[4] = molecular target: T3, Platypus Mel1C (Ornithorhynchus anatinus, UniProt A0A2P1K6N2); assay: 2-[125I]-iodomelatonin competition binding, membranes from stably transfected CHO cells, platypus Mel1c; details: membranes from stably transfected CHO cells, radioligand 2-[125I]-iodomelatonin; for Ki: read-out: Platypus Mel1C (converted)
Protocol: as §2, §3, §1

[5] = molecular target: T3, Platypus Mel1C; assay: 2-[125I]-iodomelatonin competition binding, transiently transfected COS7 cells, platypus Mel1c; details: COS7 cells transiently transfected with Mel1c gene; radioligand 2-[125I]-iodomelatonin; two transfections, triplicate
Protocol: (§4) COS7 cells obtained from the American Type Culture Collection were maintained in DMEM GlutaMAX (Thermo Fisher Scientific, Waltham, USA) supplemented with 10% (v/v) fetal calf serum. Nucleofection of COS7 cells was performed according to the manufacturer's instructions using the Nucleofector machine (Amaxa, Cologne, Germany). Adherent COS7 cells were washed in phosphate-buffered saline (PBS), trypsinized, and gently resuspended in V nucleofection solution to a final concentration of 7 × 10^6 cells/100 μl. Next, 5 μg of pCIneo/Mel1c vector was mixed with 100 μl of the COS7 cell suspension, transferred to a […] electroporation cuvette, and nucleofected using program A024 and an Amaxa Nucleofector apparatus. Just after the nucleofection, 500 μl of media supplemented with 20% (v/v) fetal calf serum was added to the cell suspension and cultured in a humidified 37°C, 5% CO2 incubator for 20 minutes. Fourteen million cells were transferred to a T225 flask containing 50 ml of media supplemented with 20% (v/v) fetal calf serum and cultured in a humidified 37°C, 5% CO2 incubator. Two days after transfection, the cells were harvested in PBS, pelleted, and stored at -80°C until use.
as §1
(§5) To obtain stable expression of the receptor for future studies, a preliminary step involving transient expression of the receptor was performed. The Mel1c receptors from the three species were expressed in transiently transfected COS7 cells. A limited number of compounds were tested in order to gain a preliminary perception of the characteristics of Mel1c from these species.

[6] = molecular target: T4, X. laevis Mel1c receptor (Xenopus laevis, UniProt P49219); assay: 2-[125I]-iodomelatonin competition binding, transiently transfected COS7 cells, Xenopus Mel1c; details: COS7 cells transiently transfected with Mel1c gene, radioligand 2-[125I]-iodomelatonin, two transfections, triplicate; for Ki: read-out: pKi Xenopus laevis (converted)
T4 construct: expressed in transfected cells; host or cells: COS7 (transient nucleofection, pCIneo vector)
T4 sequence (P49219 1-354 isoform P49219-2): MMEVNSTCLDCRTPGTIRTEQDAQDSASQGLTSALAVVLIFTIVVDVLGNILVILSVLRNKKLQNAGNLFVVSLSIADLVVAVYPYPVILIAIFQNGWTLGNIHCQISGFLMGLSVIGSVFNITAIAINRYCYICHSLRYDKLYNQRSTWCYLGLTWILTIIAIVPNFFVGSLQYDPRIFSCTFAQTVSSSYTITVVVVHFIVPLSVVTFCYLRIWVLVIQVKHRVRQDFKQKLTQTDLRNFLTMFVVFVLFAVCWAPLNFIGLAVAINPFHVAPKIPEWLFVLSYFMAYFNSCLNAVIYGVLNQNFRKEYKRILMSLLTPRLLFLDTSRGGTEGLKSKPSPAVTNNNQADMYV
Protocol: as §4, §1, §5

[7] = molecular target: T5, G. gallus Mel1c receptor (Gallus gallus, UniProt P49288); assay: 2-[125I]-iodomelatonin competition binding, transiently transfected COS7 cells, chicken Mel1c
T5 construct: expressed in transfected cells; host or cells: COS7 (transient nucleofection, pCIneo vector)
T5 sequence (P49288 1-346): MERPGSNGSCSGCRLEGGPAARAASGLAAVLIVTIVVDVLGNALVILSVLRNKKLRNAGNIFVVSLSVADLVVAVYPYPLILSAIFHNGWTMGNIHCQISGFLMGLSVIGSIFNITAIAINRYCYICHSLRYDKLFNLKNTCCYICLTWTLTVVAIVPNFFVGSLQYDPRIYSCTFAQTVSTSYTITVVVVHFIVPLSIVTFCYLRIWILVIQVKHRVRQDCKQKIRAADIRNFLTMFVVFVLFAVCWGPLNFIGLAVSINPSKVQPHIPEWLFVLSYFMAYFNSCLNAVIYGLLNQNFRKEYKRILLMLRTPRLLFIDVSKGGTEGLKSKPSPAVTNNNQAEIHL
Protocol: as §4, §1, §5

[8] = membranes from stably transfected CHO cells, radioligand 2-[125I]-iodomelatonin

T3 sequence (A0A2P1K6N2 1-349): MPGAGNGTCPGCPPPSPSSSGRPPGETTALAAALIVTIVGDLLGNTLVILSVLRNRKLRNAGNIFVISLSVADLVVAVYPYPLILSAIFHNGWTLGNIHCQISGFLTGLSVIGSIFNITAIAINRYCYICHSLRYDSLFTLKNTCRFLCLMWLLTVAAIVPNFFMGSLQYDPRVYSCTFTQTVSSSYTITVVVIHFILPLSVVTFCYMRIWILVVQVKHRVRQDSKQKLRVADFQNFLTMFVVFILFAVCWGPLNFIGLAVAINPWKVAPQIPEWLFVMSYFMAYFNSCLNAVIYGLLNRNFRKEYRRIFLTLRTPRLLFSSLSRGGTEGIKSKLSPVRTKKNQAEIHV
Sequence of hMT1 (P48039 whole entry): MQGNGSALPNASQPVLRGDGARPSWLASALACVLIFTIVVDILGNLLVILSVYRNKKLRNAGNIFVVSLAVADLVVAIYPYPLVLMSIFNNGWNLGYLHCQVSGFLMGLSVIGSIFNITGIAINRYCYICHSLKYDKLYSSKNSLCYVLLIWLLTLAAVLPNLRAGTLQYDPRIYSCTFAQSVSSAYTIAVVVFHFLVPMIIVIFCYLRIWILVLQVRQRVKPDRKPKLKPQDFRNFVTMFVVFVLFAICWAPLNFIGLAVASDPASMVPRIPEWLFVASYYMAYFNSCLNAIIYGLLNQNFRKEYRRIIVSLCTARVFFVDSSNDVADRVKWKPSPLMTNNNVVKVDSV

Compound: 2-(2-[(2-iodo-4,5-dimethoxyphenyl)methyl]-4,5-dimethoxy phenyl [DIV880]
- hMT1 [1, 8]: 6.1
- pKi [2]: 5.9
- hMT2 [3, 8]: 8.0
- pKi [4]: 6.2

Compound: COc1ccc2[nH]c(I)c(CCNC(C)=O)c2c1 [2-Iodomelatonin, 2-iodomelatonin]
- pKi Ornithorhyncus anatinus [5]: 10.2
- pKi Xenopus laevis [6]: 10.0
- pKi Gallus gallus ([7]; COS7 cells transiently transfected with Mel1c gene, radioligand 2-[125I]-iodomelatonin, two transfections, triplicate): 9.8

Compound: COc1ccc2[nH]cc(CCNC(C)=O)c2c1I [4-Iodomelatonin, N-[2-(4-iodo-5-methoxy-1H-indol-3-yl)ethyl]acetamide]
- Ki [1, 8]: 15.8 nM
- Ki [2]: 251 nM
- Ki [3, 8]: 12.6 nM
- Ki [4]: 100 nM

Compound: CCC(=O)N[C@@H]1Cc2ccccc2[C@H](c2ccccc2)C1 [4P-PDOT, N-[(2S,4S)-4-phenyl-1,2,3,4-tetrahydronaphthalen-2-yl]propanamide]
- Ki [1, 8]: 158 nM
- pKi Ornithorhyncus anatinus [5]: 6.7
- Ki [2]: 794 nM
- Ki [3, 8]: 1.26 nM
- Ki [6]: 200 nM
- Ki [4]: 631 nM
- Ki [7]: 398 nM

Compound: COc1cc2c(CCNC(C)=O)c[nH]c2cc1I [6-Iodomelatonin, N-[2-(6-iodo-5-methoxy-1H-indol-3-yl)ethyl]acetamide]
- Ki [1, 8]: 1.58 nM
- Ki [2]: 7.94 nM
- Ki [3, 8]: 2.51 nM
- Ki [4]: 3.98 nM

Compound: COc1cc(I)c2[nH]cc(CCNC(C)=O)c2c1 [7-Iodomelatonin]
- hMT1 [1]: 7.3
- pKi [2]: 7.3
- hMT2 [3]: 7.3
- pKi [4]: 7.5

Compound: COc1ccc2cccc(CCNC(C)=O)c2c1 [Agomelatin ®, N-(2-(7-methoxynaphthalen-1-yl)ethyl)acetamide]
- pKi Ornithorhyncus anatinus [5]: 9.6
- Ki [2]: 0.794 nM
- Ki [6]: 0.631 nM
- Ki [4]: 0.398 nM

Compound: COc1ccc(CCN(C)CCCC(C#N)(c2cc(OC)c(OC)c(OC)c2)C(C)C)cc1OC (stereo not shown) [D600, methoxyverapamil]
- Ki [1, 8]: 100 nM
- Ki [2]: 2000 nM
- Ki [3, 8]: > 10000 nM
- Ki [4]: 2000 nM
